Counter-ions that a name gives are not always drawn.
Key:
human Factor XIa = human Factor XIa (Homo sapiens, UniProt P03951); test: biochemical; details: purified human Factor XIa, substrate S-2366, HEPES buffer pH 7.4
human plasma kallikrein = human plasma kallikrein (Homo sapiens, UniProt P03952); test: biochemical; details: purified human plasma kallikrein, substrate S-2302, sodium phosphate buffer pH 7.5
Sequence of human plasma kallikrein (P03952 391-638 limits assumed): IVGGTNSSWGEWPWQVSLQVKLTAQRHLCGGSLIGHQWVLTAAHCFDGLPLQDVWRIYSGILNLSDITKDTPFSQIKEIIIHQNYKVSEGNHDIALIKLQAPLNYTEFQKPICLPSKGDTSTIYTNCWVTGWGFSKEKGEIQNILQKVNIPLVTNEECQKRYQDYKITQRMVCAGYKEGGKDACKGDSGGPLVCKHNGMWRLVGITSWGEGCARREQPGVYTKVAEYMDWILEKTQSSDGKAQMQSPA
Sequence of human plasma kallikrein (P03952 20-390 partner limits assumed): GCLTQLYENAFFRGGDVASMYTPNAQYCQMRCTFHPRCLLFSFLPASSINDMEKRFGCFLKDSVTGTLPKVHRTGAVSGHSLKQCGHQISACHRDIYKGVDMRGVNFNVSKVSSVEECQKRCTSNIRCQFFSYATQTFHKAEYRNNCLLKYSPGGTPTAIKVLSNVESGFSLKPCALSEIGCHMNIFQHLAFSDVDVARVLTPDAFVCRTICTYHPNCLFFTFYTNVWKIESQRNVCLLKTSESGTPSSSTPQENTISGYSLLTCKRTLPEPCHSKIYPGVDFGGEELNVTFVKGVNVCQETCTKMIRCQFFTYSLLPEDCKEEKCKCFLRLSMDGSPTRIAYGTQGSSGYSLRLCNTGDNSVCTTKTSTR

Sequence of human Factor XIa (P03951 388-625 limits assumed): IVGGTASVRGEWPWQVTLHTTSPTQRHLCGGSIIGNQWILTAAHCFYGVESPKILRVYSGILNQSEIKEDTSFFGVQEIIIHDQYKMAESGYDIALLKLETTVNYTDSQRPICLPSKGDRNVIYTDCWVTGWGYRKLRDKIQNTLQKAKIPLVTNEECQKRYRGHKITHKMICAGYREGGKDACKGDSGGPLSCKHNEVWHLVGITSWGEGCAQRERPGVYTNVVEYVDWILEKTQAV
Sequence of human Factor XIa (P03951 19-387 partner limits assumed): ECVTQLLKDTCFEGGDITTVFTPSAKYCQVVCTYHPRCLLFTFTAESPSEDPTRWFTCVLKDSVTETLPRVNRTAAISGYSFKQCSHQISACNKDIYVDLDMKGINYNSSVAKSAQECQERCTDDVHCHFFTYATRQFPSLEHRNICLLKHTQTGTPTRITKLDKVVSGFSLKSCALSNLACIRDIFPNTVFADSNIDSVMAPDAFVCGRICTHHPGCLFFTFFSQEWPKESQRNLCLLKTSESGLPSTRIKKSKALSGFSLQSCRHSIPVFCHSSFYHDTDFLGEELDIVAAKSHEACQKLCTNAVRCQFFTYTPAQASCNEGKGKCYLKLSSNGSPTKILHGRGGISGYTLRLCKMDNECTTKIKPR

| Ki (human Factor XIa) [nM] | Ki (human plasma kallikrein) [nM] | Structure (SMILES) |
| --- | --- | --- |
| 0.1 | – | C[C@@H]1CCC[C@H](n2cnc(-c3c(-n4cnnn4)ccc(Cl)c3F)cc2=O)c2cc(ccn2)-c2cc(F)ccc2NC1=O [Example 35, (10R,14S)-14-{4-[3-chloro-2-fluoro-6-(1H-1,2,3,4-tetrazol-1-yl)phenyl]-6-oxo-1,6-dihydropyrimidin-1-yl}-4-fluoro-10-methyl-8,16-diazatricyclo[13.3.1.0^2,7]nonadeca-1(19),2(7),3,5,15,17-hexaen-9-one trifluoroacetate] |
| 3 | – | C[C@@H]1CCC[C@H](n2cnc(-c3cc(Cl)ccc3-n3cc(C(F)(F)F)nn3)cc2=O)c2cc(ccn2)-c2ccc(C#N)cc2NC1=O [Example 43, (10R,14S)-14-(4-{5-chloro-2-[4-(trifluoromethyl)-1H-1,2,3-triazol-1-yl]phenyl}-6-oxo-1,6-dihydropyrimidin-1-yl)-10-methyl-9-oxo-8,16-diazatricyclo [13.3.1.0^2,7]nonadeca-1(19),2(7),3,5,15,17-hexaene-5-carbonitrile trifluoroacetate] |
| 290 | – | C[C@@H]1CCC[C@H](n2cnc(-c3cc(Cl)ccc3F)cc2=O)c2cc(ccn2)-c2cc(F)ccc2NC1=O [Example 50, (10R,14S)-14-[4-(5-chloro-2-fluorophenyl)-6-oxo-1,6-dihydropyrimidin-1-yl]-4-fluoro-10-methyl-8,16-diazatricyclo[13.3.1.0^2,7]nonadeca-1(19),2(7),3,5,15,17-hexaen-9-one trifluoroacetate] |
| 0.28 | – | C[C@@H]1CCC[C@H](n2cnc(-c3cc(Cl)ccc3-n3cc(Cl)nn3)cc2=O)c2cc(ccn2)-c2ccccc2NC1=O [Example 57, (10R,14S)-14-{4-[5-chloro-2-(4-chloro-1H-1,2,3-triazol-1-yl)phenyl]-6-oxo-1,6-dihydropyrimidin-1-yl}-10-methyl-8,16-diazatricyclo[13.3.1.0^2,7]nonadeca-1(19),2,4,6,15,17-hexaen-9-one] |
| 11 | – | C[C@@H]1CCC[C@H](n2cnc(-c3cc(Cl)ccc3-n3cc(Cl)nn3)cc2=O)c2cc(ccn2)-c2cc(S(C)(=O)=O)ccc2NC1=O [Example 67, (10R,14S)-14-{4-[5-chloro-2-(4-chloro-1H-1,2,3-triazol-1-yl)phenyl]-6-oxo-1,6-dihydropyrimidin-1-yl}-4-methanesulfonyl-10-methyl-8,16-diazatricyclo [13.3.1.0^2,7]nonadeca-1(19),2(7),3,5,15,17-hexaen-9-one] |
| 39 | – | COC(=O)c1ccc(Cl)cc1-c1cc(=O)n([C@H]2CCC[C@@H](C)C(=O)Nc3ccc(F)cc3-c3ccnc2c3)cn1 [Example 68, methyl 4-chloro-2-{1-[(10R,14S)-4-fluoro-10-methyl-9-oxo-8,16-diazatricyclo[13.3.1.0^2,7]nonadeca-1(19),2(7),3,5,15,17-hexaen-14-yl]-6-oxo-1,6-dihydropyrimidin-4-yl}benzoate] |
| 0.26 | – | C[C@@H]1CCC[C@H](n2cnc(-c3cc(Cl)ccc3-n3cc(C#N)nn3)cc2=O)c2cc(ccn2)-c2ccc(C(F)F)cc2NC1=O [Example 70, 1-(4-chloro-2-{1-[(10R,14S)-5-(difluoromethyl)-10-methyl-9-oxo-8,16-diazatricyclo[13.3.1.0^2,7]nonadeca-1(19),2(7),3,5,15,17-hexaen-14-yl]-6-oxo-1,6-dihydropyrimidin-4-yl}phenyl)-1H-1,2,3-triazole-4-carbonitrile] |
| 0.42 | – | Cc1ccc2c(c1)NC(=O)[C@H](C)CCC[C@H](n1cnc(-c3cc(Cl)ccc3-n3cc(C(F)(F)F)nn3)cc1=O)c1cc-2ccn1 [Example 78, (10R,14S)-14-(4-{5-chloro-2-[4-(trifluoromethyl)-1H-1,2,3-triazol-1-yl]phenyl}-6-oxo-1,6-dihydropyrimidin-1-yl)-5,10-dimethyl-8,16-diazatricyclo [13.3.1.0^2,7]nonadeca-1(19),2(7),3,5,15,17-hexaen-9-one] |
| 0.1 | – | C[C@@H]1CCC[C@H](n2cnc(-c3cc(Cl)ccc3-n3cc(Cl)nn3)cc2=O)c2cc(ccn2)-c2ccc(O)cc2NC1=O [Example 85, (10R,14S)-14-{4-[5-chloro-2-(4-chloro-1H-1,2,3-triazol-1-yl)phenyl]-6-oxo-1,6-dihydropyrimidin-1-yl}-5-hydroxy-10-methyl-8,16-diazatricyclo[13.3.1.0^2,7]nonadeca-1(19),2(7),3,5,15,17-hexaen-9-one trifluoroacetate] |
| 7.1 | – | C[C@@H]1CCC[C@H](n2cnc(-c3cc(Cl)ccc3-n3cc(Cl)nn3)cc2=O)c2cc(ccn2)-c2ccc(C(F)(F)C(N)=O)cc2NC1=O [Example 90, 2-[(10R,14S)-14-{4-[5-chloro-2-(4-chloro-1H-1,2,3-triazol-1-yl)phenyl]-6-oxo-1,6-dihydropyrimidin-1-yl}-10-methyl-9-oxo-8,16-diazatricyclo[13.3.1.0^2,7]nonadeca-1(19),2(7),3,5,15,17-hexaen-5-yl]-2,2-difluoroacetamide trifluoroacetate] |
| 0.41 | – | C[C@@H]1CCC[C@H](n2cnc(-c3cc(Cl)ccc3-n3cc(C(F)(F)F)nn3)cc2=O)c2cc(ccn2)-c2c(Cl)cccc2NC1=O [Example 105, (10R,14S)-3-chloro-14-(4-{5-chloro-2-[4-(trifluoromethyl)-1H-1,2,3triazol-1-yl]phenyl}-6-oxo-1,6-dihydropyrimidin-1-yl)-10-methyl-8,16-diazatricyclo[13.3.1.0^2,7]nonadeca-1(19),2(7),3,5,15,17-hexaen-9-one] |
| 2.7 | – | C[C@@H]1CCC[C@H](n2cnc(-c3cc(Cl)ccc3-c3csnn3)cc2=O)c2cc(ccn2)-c2cc(F)ccc2NC1=O [Example 117, (10R,14S)-14-{4-[5-chloro-2-(1,2,3-thiadiazol-4-yl)phenyl]-6-oxo-1,6-dihydropyrimidin-1-yl}-4-fluoro-10-methyl-8,16-diazatricyclo[13.3.1.0^2,7]nonadeca-1(19),2(7),3,5,15,17-hexaen-9-one] |
| 100 | – | C[C@@H]1CCC[C@H](n2cnc(-c3cc(Cl)cc4cnn(C)c34)cc2=O)c2cc(ccn2)-c2ccccc2NC1=O [Example 119, (10R,14S)-14-[4-(5-chloro-1-methyl-1H-indazol-7-yl)-6-oxo-1,6-dihydropyrimidin-1-yl]-10-methyl-8,16-diazatricyclo[13.3.1.0^2,7]nonadeca-1(19),2(7),3,5,15,17-hexaen-9-one] |
| – | 210 | C[C@@H]1CCC[C@H](n2cnc(-c3c(Cl)ccc(Cl)c3F)cc2=O)c2cc(ccn2)-c2cc(F)ccc2NC1=O [Example 147, (10R,14S)-14-[4-(3,6-dichloro-2-fluorophenyl)-6-oxo-1,6-dihydropyrimidin-1-yl]-4-fluoro-10-methyl-8,16-diazatricyclo[13.3.1.0^2,7]nonadeca-1(19),2(7),3,5,15,17-hexaen-9-one trifluoroacetate] |
| – | 38 | C[C@@H]1CCC[C@H](n2cnc(-c3cc(Cl)ccc3-n3cc(C(N)=NO)nn3)cc2=O)c2cc(ccn2)-c2cc(F)ccc2NC1=O [Example 149, 1-(4-chloro-2-{1-[(10R,14S)-4-fluoro-10-methyl-9-oxo-8,16-diazatricyclo [13.3.1.0^2,7]nonadeca-1(19),2(7),3,5,15,17-hexaen-14-yl]-6-oxo-1,6-dihydropyrimidin-4-yl}phenyl)-N-hydroxy-1H-1,2,3-triazole-4-carboximidamide bis-trifluoroacetate] |

Source: patent publication US9777001B2 (priority 2014, dated 2017)
